How the values were obtained:
[1] = tested on: human platelets; test: MCATS assay of human platelet forces on Ttol=12 pN surface
Procedure: Each drug was incubated for 30 min prior to seeding. Mechano-IC50 was calculated by fitting a plot to a standard dose-response function: Signal=Bottom+(Top-Bottom)/(1+([drug]/IC50).
Platelet-rich plasma (PRP) is prepared by centrifugation and separation from whole blood. Then platelets rich plasma was separated and centrifuged a second time with apyrase and resuspended in Tyrode's solution, which is isotonic with interstitial fluid, contains magnesium, and uses bicarbonate and phosphate as a buffer. Apyrase is important in the platelets purification process to prevent hemolysis caused platelets aggregation. MCATS was tested as a function of the number of platelets seeded on the Ttol=12pN surface (FIG. 3A). […]
MCATS assay was performed on the prepared biotin surface as described in the surface preparation section. […] Surfaces with exposed activator were imaged directly with fluorescence microscopy for high resolution characterization and quantification. […] After 1 h of incubation, fluorescence intensities on 96 well plates were measured with a plate reader (Ex/Em=540/590 nm for reporter channel).
For platelet MCATS measurements, human platelets were purified and incubated at room temperature for at least 30 min before beginning experiments. […] The same MCATS protocols were followed to achieve amplification and quantification for platelets.

[2] = tested on: NIH/3T3 cells; test: MCATS assay of integrin-mediated forces in NIH/3T3 cells, plate reader readout; assay type: cell-based; details: NIH/3T3 cells pretreated 30 min, 0-50 μM
Procedure: The values were normalized to the signal obtained from the 25,000 cells/well samples without drug treatment. All measurements were background subtracted using negative control wells lacking cells.
Considering that receptor mediated tension plays an important role in cell function, quantifying molecular forces of cell in a rapid fashion facilitates applications such as screening dose-response curves for drugs that modulate cell mechanics. Experiments were performed to determine whether MCATS can be used to produce a dose response curve for NIH-3T3 cell incubated with Rho kinase inhibitor, Y-27632, which targets the phosphorylation of myosin light chain and therefore dampens forces transmitted by focal adhesions. NIH/3T3 cells were pretreated with a range of Y-27632 concentrations (0-50 μM) for 30 min. MCATS was ran with the drug treated cell.
The wells were washed with 1×PBS.

Compound: Nc1ncnc2c1ncn2[C@@H]1O[C@H](COP(=O)(O)OP(=O)(O)O)[C@@H](O)[C@H]1O [ADP]
- MCATS tension signal, dose-response to agonist [1]: Increasing tension signal

Compound: C[C@@H](N)[C@H]1CC[C@H](C(=O)Nc2ccncc2)CC1 [Y-27632]
- MCATS signal as a function of drug concentration [2]: dose-dependent reduction
